Laboratory results from patent US20070197509A1, “Compositions and methods for modulating gated ion channels” (PainCeptor Pharma Corporation, priority 2005, published 2007).
Like-named read-outs stand apart in the source and are kept apart here.

Target: T1, hASIC1a (Homo sapiens, UniProt P78348)
T1 sequence (P78348 1-528): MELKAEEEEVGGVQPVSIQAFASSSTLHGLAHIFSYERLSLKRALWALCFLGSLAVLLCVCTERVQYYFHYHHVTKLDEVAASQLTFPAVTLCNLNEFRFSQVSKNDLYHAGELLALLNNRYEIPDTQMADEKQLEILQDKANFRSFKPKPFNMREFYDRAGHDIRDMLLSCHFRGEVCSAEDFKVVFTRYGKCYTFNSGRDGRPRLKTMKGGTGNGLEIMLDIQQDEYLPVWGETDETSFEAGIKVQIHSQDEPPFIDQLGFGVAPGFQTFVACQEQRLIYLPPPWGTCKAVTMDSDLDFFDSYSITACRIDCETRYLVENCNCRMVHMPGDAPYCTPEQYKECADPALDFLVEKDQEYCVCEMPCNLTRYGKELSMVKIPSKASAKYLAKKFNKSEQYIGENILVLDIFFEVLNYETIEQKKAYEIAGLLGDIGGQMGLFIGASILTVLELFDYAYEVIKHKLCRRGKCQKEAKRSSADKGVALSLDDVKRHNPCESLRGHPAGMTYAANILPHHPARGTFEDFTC
Assay: FlexStation/FLIPR calcium-imaging assay, acid (MES)-induced response in ASIC1a expressing cells
Format: cell-based
Design: expressed in transfected cells
Protocol: Identification of ASIC Antagonists Using Calcium-Imaging
ASIC1a expressing HEK293 or CHO cells are grown in culture medium (DMEM with 10% FBS), in polystyrene culture flasks ([…]) at 37° C. in a humidified atmosphere of 5% CO2. Confluency of cells should be 80-90% on day of plating. Cells are rinsed with 10 ml of PBS and re-suspended by addition of culture medium and trituration with a 25 ml pipette.
The cells are seeded at a density of approximately 1×10^5 cells/ml for HEK293 and 8×10^4 for CHO cells (100 μl/well) in black-walled, clear bottom, poly-D-lysin pre-treated 96-well plates. Plated cells were allowed to proliferate for 48 h before loading with dye.
Fluo-4/AM (1 mg, Molecular Probes) is dissolved in 912 μl DMSO. The Fluo-4/AM stock solution (1 mM) is diluted with culture medium to a final concentration of 2 μM (loading solution).
The culture medium is aspirated from the wells, and 80 μl of the Fluo-4/AM loading solution is added to each well. The cells are incubated at 37° C. for 30 min. When CHO cells are used, probenicid at 2.5 mM (final concentration) is added in the loading solution.
After the loading period (15-20 min., the loading solution is aspirated and the cells are washed twice with 100 μl modified Assay Buffer (145 mM NaCl, 5 mM KCl, 5 mM CaCl2, 1 mM MgCl2, 10 mM HEPES, pH 7.4) to remove extracellular dye. Following the second wash, 100 μl modified Assay Buffer is added to each well and the fluorescence is measured in FLIPR™ or FlexStation™ (Molecular Devices, USA), or any other suitable equipment known to the skilled in the art. When CHO cells are used, probenicid at 2.5 mM (final concentration) is added in the wash buffer.
First addition: 50 μl test solution at a rate of 26 μl/sec and a starting height of 125 μl
Second addition: 50 μl MES solution (20 mM, 5 mM final concentration) at a rate of 26 μl/sec and a starting height of 115 μl.
Reading intervals: pre-incubation—120 sec. antagonist phase, addition of MES at 145 sec. and reading time with agonist 100 sec (total run time of 240 sec).
Fluorescence obtained after stimulation is corrected for the mean basal fluorescence (in modified Assay Buffer).
The MES-induced peak calcium response (or change in membrane potential), in the presence of test substance, is expressed relative to the MES response alone. Test substances that block the MES-induced calcium response (or change in membrane potential) are re-tested in triplicates. Confirmed hits are picked for further characterization by performing full dose-response curves to determine potency of each hit compound as represented by the IC50 values (i.e., the concentration of the test substance which inhibits 50% of the MES-induced calcium and/or membrane potentiation response; see, for example, FIG. 1).

[1] = calcium mobilization assay, HEK293, n=3-7, read-out: FPAT-ASIC1a human/HEK293/k21 IC50

Row | SMILES | IC50 [1] [µM] | IC50 (FlexStation (Flex), Tables A-F, read-out: Biological Data (IC50 uM) h1a (Flex)) [µM] | inhibitory effect on acid-induced hASIC1a activity (FIG. 1) (HEK-293 transiently expressing hASIC1a, intracellular calcium, increasing concentrations)
1 | COc1ccc(C(=O)CN2CCN(c3cc(C)nc4ccccc34)CC2)cc1 [Compound A, 1-(4-methoxy-phenyl)-2-[4-(2-methyl-quinolin-4-yl)-piperazin-1-yl]-ethanone] | < 10 |  | 
2 | Cc1cc(OC2CCN(Cc3ccccc3)CC2)c2ccccc2n1 [Compound R, 4-(1-benzyl-piperidin-4-yloxy)-2-methyl-quinoline] |  | 15 to 25 | dose-dependently inhibited
3 | Fc1cccc2c(OC3CCN(Cc4ccccc4)CC3)cc(C(F)(F)F)nc12 [Compound B, 4-(1-benzyl-piperidin-4-yloxy)-8-fluoro-2-trifluoromethyl-quinoline] | < 10 |  | 
